Where only a bound is given, the exact number is not on record here.

One data set concerns HaCat keratinocytes. The experiment in a line: AGE-photosensitization of human skin cells, growth inhibition under solar simulated light. The settings on record: 10 mM.
A further data set has as its system HaCat cells. The experiment in a line: Protection of keratinocytes from alpha-dicarbonyl stress (cell count after 72 hour exposure). The format is cell-based, human. How it is done:
A continuous cell line of human epidermal keratinocytes (HaCat cells) and human dermal fibroblasts (CF-3 cells) were routinely cultured in 75 cm^2 flasks and split biweekly in DMEM containing 10% fetal bovine serum and kept in a humidified atmosphere containing 5% CO2 at 37° C. Human keratinocytes were split using 5% trypsin and human fibroblasts employed 1% trypsin. All experiments were carried out on 6 well dishes (Falcon USA), where keratinocytes were seeded at 2×10^4 cells/well and fibroblasts at 4×10^4 cells/well. Cells were left overnight to attach to the plate and the appropriate carbonyl scavenger was then added 15 minutes prior to the addition of the alpha-dicarbonyl stress compounds glyoxal or methylglyoxal. Following 72 hour exposure to the stress compound, cells were counted with a Coulter counter. the protective effects of the alpha-dicarbonyl scavengers were assessed by comparing the growth of untreated cells with cells exposed to alpha-carbonyl stress +/− test compound.

Data set [1] can be described thus: Alpha-dicarbonyl trapping followed by HPLC. How it is done: Phenylglyoxal (10 mM) and D-penicillamine (20 mM) were reacted in 50 mM KH2PO4 buffer, pH 7.4 at room temperature. The progress of he reaction was monitored by HPLC analysis of reaction aliquots at 254 nm. After 40 minutes reaction time more than 90% conversion of the phenylglyoxal peak into a single product peak of higher retention time was observed. […] UV detection was at 254 nm. As shown by the HPLC analysis of the reaction system shown in FIG. 7, phenyglyoxal is fully reacted with D-penicillamine within 5 minutes. […] The reaction kinetics were studied at a phenylglyoxal concentration of […] and at 250 and 500 micromolar carbonyl scavenger concentration (D-penicillamine, aminoguanidine). Over the course of the reaction, aliquots were analyzed by HPLC. In the case of D-penicillamine, which required shorter sampling periods, reaction aliquots were taken every 20 seconds, and kept on dry ice until analysis. The initial reaction rates of phenylglyoxal with the test compounds were monitored by following the disappearance of phenylglyoxal over time. […] The measured first order rate constant (kst) was then used to calculate the second order rate constant (by applying the following equation: […]-carbonyl scavenger}. The calculated second order rate constants determined at the two reactant ratios were in good agreement.

Data set [2] deals with glycation of histone H1 by ADP-ribose. The experiment in a line: Screening of inhibitors of nonoxidative advanced glycation: AGE-fluorescence on 96 well-microtiter plate. The settings on record: (± SEM, n = 2); for AGE-fluorescence (day 5): complete reaction under air. The class given is biochemical, calf. How it is done: All operations were carried out at 4° C. Chromatin was isolated from fresh calf thymus by extraction with 0.14 M NaCl, 0.05 M Na2S2O5, as described earlier in Wondrak supra. After repeated extraction with 5% HCl)4 and centrifugation (1500 g), histone H1 was precipitated from the supernatant by addition of TCA (20% final concentration v/v). The histone H1 precipitate was colleted by centrifugation (12,000 g) and deionized water. After extensive dialysis (MW cut-off: 12,000-14,000) against water for 48 h, the sample was lyophilized and the protein was stored at 4° C. SDS-PAGE (12%) was used to analyze the purity of the preparation.
Earlier studies have reported that D-penicillamine inhibits collagen crosslinking and AGE fluorescence caused by sugars (McPherson, J. D., Shilton, B. H., and Walton, D. J. 1988. Role of Fructose in Glycation and Cross-Linking of Proteins. Biochemistry 27, 1901-1907) and reaction of D-penicillamine with aldehyde groups of proteins (Deshmukh, K., and Nimm, M. E. 1969. A Defect in the Intramolecular and Intermolecular Cross-linking of Collagen caused by Penicillamine. J. Biol. Chem. 244, 1787-1795). A number of different penicillamines and penicillamine derivatives were tested to determine the inhibition of AGE-fluorescence on histone H1 at physiological pH. The reaction conditions for the glycation of histone H1 by ADP-ribose mimic physiological conditions to the extent possible. Reaction mixtures contain 1.5 mg/ml histone Hl, 1.0 mM ADP-ribose, 50 mM potassium phosphate buffer, pH 7.4, 37° C. D,L-penicillamine; L-penicillamine; D-penicllamine; D-penicillaminedisulfide and N,S- isopropylidine-D-penicillamine were tested in concentrations of 1,5 and 10 mM. The detected reaction parameter representing the accumulation of protein damage is AGE-fluorescence ((λex=[…]), which is suppressed by the presence of a compound with inhibitory activity. Generation of AGE-type fluorescence (λex=355 nm; λem=405 nm) was monitored over time at 37° C; which is in the range of the broad excitation/emission maxima of AGE compounds. To allow high throughput sample processing on 96 well microtiter plates, the reaction volumes are 300 μl. Fluorescence on the 96-well microtiter plates was measured using an automated microtiter fluorescence reader. Fluorescence of the 1 ml samples of the glycation reaction mixtures was measured using a Hitachi F-200 fluorescence spectophotometer, and prior to measurement the protein sample is dialyzed extensively against water (MW cutoff=[…]), lyophilized and reconstituted in reaction buffer. For inhibitor screening the plate is read on a Fluoroskan II plate reader (Titertek, ICN) at the excitation/emission wavelengths set forth above at a bandwidth of 35 nm.
The following screening scheme is used (see Table 1): AGE-fluorescence is determined at the beginning and after five days of incubation. Test compounds that are inherently fluorescent (designated false negatives) were identified by the initial fluorescence measurement (See Table 1, NADH for example). Since these are compounds of uncertain activity, they are diverted directly to the second stage of the screen. Aminoguanidine, a known glycation inhibitory agent, was used as a positive control for suppression of the increase on AGE-fluorescence. After five days incubation and plate reading, fluorescence quenchers (designated false positives) are excluded by measuring the quenching activity of the test compound by addition of AGE modified protein having known fluorescence activity to one microtiter plate well containing test compound in the complete reaction mixture. For this, AGE-BSA is used as the AGE-type fluorescence standard. This AGE-BSA test excludes false positives compounds that function by fluorescence quenching. If fluorescence quenching occurs the test compound is excluded from further screening. […] The protein is visualized by silver staining of the gel. […]

Experimental for HaCat keratinocytes: Human HaCat keratinocytes growing on 35 mm dishes were exposed to solar simulated light (1.2 kJ/m^2 UVB and 23 kJ/m^2 UVA) in the presence or absence of AGE-BSA as a model of a protein with advanced glycation endproducts. Control populations were treated in exactly the same way as described above, but were not exposed to solar simulated light (SSL).

`CC(C)(S)[C@@H](N)C(=O)O` [D-Penicillamine]: in the data set with HaCat keratinocytes, the “toxic effects on HaCat cells” value is listed as “no toxic effects”. Moreover, in the data set with HaCat keratinocytes (AGE-BSA with SSL), the “reversal of the photosensitization effect” value is on record as “completely reversed the photosensitization effect”. The “protection from alpha-dicarbonyl stress” value in the data set with HaCat cells (FIG. 14) is recorded as “protection”. Further, the “protection from methylglyoxal induced alpha-dicarbonyl stress” value with HaCat cells (FIG. 15) is given as “protection”. In addition, the “time until phenylglyoxal is fully reacted” value in data set [1] (HPLC analysis, FIG. 7) was at most 5 min. In data set [1] (phenylglyoxal 10 mM, D-penicillamine 20 mM, pH 7.4, room temperature, after 40 minutes), the “conversion of the phenylglyoxal peak into a single product peak” value is “more than 90%”. Further, the figures for the “AGE-fluorescence (day 0)” value in data set [2] (compound 1 mM), in data set [2] (compound 5 mM) and in data set [2] (compound 10 mM) were 1.2 (0.0) relative units, 1.1 (0.1) relative units and 1.1 (0.0) relative units, respectively. Moreover, the figures for the “AGE-fluorescence (day 5)” value in data set [2] (compound 1 mM), in data set [2] (compound 5 mM) and in data set [2] (compound 10 mM) were 11 (0.6) relative units, 2.9 (0.3) relative units and 1.4 (0.1) relative units, respectively.

Source of the values: US6417235B2, “Method and use of α-amino-β-mercapto-ethane derivatives as dicarbonyl scavengers for treatment of conditions resulting from protein, lipid, and DNA damage” (University of Kentucky Research Foundation, priority 2000, dated 2002).
